Measurements published in patent US20110028455A1, “Indole-substituted 3-cyanopyridines As Kinase Inhibitors” (Wyeth LLC, priority 2007, published 2011).

Target: T1, human PKCθ full length enzyme (Homo sapiens, UniProt Q04759)
T1 construct: human PKCθ full length enzyme (Panvera Cat# P2996); purchased Panvera P2996
Experiment: PKCθ IMAP Assay
Assay type: biochemical
Settings: PKCθ 1 nM; ATP 6 μM; peptide 100 nM; DMSO 5%; 25 minutes at room temperature; FP readout; read-out: PKC-Theta Mean IC50
Experimental: The materials used include the following: human PKCθ full length enzyme (Panvera Cat# P2996); substrate peptide: 5FAM-RFARKGSLRQKNV-OH (Molecular Devices, RP7032); ATP (Sigma Cat # A2383); DTT (Pierce, 20291); 5× kinase reaction buffer (Molecular Devices, R7209); 5× binding buffer A (Molecular Devices, R7282), 5× binding buffer B (Molecular Devices, R7209); IMAP Beads (Molecular Devices, R7284); and 384-well plates (Corning Costar, 3710).
The reaction buffer was prepared by diluting the 5× stock reaction buffer and adding DTT to obtain a concentration of 3.0 mM. The binding buffer was prepared by diluting the 5× binding buffer A. A master mix solution was prepared using a 90% dilution of the reaction buffer containing 2×ATP (12 uM) and 2× peptide (200 nm). Compounds were diluted in DMSO to 20× of the maximum concentration for the IC50 measurement. 27 μl of the master mix solution for each IC50 curve was added to the first column in a 384-well plate and 3 μl of 20× compound in DMSO was added to each well.
The final concentration of compound was 2× and 10% DMSO. DMSO was added to the rest of the master mix to increase the concentration to 10%. 10 μl of the master mix containing 10% DMSO was added to the rest of the wells on the plate except the 2nd column. 20 μl was transferred from the first column to the 2nd column. The compounds were serially diluted in 2:1 ratio starting from the 2nd column. A 2×(2 nM) PKCθ solution was made in the reaction buffer. 10 μl of the PKCθ solution was added to every well to achieve these final concentrations: PKCθ-1 nM; ATP-6 μM; peptide-100 nM; DMSO-5%. Samples were incubated for 25 minutes at room temperature. The binding reagent was prepared by diluting the beads in 1× binding buffer to 800:1. 50 μl of the binding reagent was added to every well and incubated for 20 minutes. FP was measured using Envision2100 (PerkinElmer Life Sciences). Wells with no ATP and wells with no enzyme were used as controls.

T1 sequence (Q04759 whole entry): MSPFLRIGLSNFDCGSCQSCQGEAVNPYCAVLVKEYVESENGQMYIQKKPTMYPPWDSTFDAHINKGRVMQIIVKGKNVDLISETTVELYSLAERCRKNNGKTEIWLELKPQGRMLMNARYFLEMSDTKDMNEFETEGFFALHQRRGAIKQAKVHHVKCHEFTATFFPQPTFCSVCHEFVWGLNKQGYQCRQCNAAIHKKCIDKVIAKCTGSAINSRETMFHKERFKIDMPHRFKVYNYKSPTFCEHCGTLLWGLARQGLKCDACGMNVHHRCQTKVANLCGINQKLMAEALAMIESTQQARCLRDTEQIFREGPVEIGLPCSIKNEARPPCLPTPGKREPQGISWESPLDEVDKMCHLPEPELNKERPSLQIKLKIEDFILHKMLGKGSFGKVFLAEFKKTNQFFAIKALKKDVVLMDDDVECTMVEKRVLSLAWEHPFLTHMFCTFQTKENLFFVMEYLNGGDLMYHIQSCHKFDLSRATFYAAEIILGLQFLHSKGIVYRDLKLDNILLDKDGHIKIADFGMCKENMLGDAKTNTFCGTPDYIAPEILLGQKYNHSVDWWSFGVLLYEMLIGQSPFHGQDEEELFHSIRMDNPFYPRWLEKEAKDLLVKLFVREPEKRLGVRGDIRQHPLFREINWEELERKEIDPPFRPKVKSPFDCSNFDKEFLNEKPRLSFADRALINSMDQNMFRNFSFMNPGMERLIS

`Cc1ncc(C#N)c(Nc2ccc3[nH]ccc3c2C)c1-c1ccc(OCCN2CCC(N3CCCC3)CC2)cc1` [Example 26, 6-methyl-4-[(4-methyl-1H-indol-5-yl)amino]-5-{4-[2-(4-pyrrolidin-1-ylpiperidin-1-yl)ethoxy]phenyl}nicotinonitrile] was tested, and the IC50 was 31 nM.
`Cc1ncc(C#N)c(Nc2ccc3[nH]ccc3c2)c1-c1cccc(CN(C)C)c1` [Example 57, 5-{3-[(dimethylamino)methyl]phenyl}-4-(1H-indol-5-ylamino)-6-methylnicotinonitrile] showed an IC50 of 87 nM.
In the case of `Cc1ncc(C#N)c(Nc2ccc3[nH]ccc3c2C)c1-c1ccc(OCCN2CCCCC2)cc1` [Example 24, 6-methyl-4-[(4-methyl-1H-indol-5-yl)amino]-5-[4-(2-piperidin-1-ylethoxy)phenyl]nicotinonitrile], the IC50 is reported as 44 nM.
Work on `COc1cccc(-c2c(C)ncc(C#N)c2Nc2ccc3[nH]ccc3c2)c1` [Example 53, 4-(1H-indol-5-ylamino)-5-(3-methoxyphenyl)-6-methylnicotinonitrile] yielded an IC50 of 34 nM.
In the case of `Cc1ncc(C#N)c(Nc2ccc3[nH]ccc3c2C)c1-c1ccc(C=O)s1` [Example 69, 5-(5-formylthiophen-2-yl)-6-methyl-4-[(4-methyl-1H-indol-5-yl)amino]pyridine-3-carbonitrile], the IC50 is reported as 4.8 nM.
Work on `Cc1ncc(C#N)c(Nc2ccc3[nH]ccc3c2C)c1-c1ccc(OCCN2CCC(N3CCOCC3)CC2)cc1` [Example 28, 6-methyl-4-[(4-methyl-1H-indol-5-yl)amino]-5-{4-[2-(4-morpholin-4-ylpiperidin-1-yl)ethoxy]phenyl}nicotinonitrile] yielded an IC50 of 28 nM.
Molecule `COc1ccc(-c2c(C)ncc(C#N)c2Nc2ccc3cc[nH]c3c2)cc1OC` [Example 46, 5-(3,4-dimethoxyphenyl)-4-(1H-indol-6-ylamino)-6-methylnicotinonitrile] has an IC50 of 11900 nM.
`Cc1ncc(C#N)c(Nc2ccc3[nH]ccc3c2)c1-c1cccs1` [Example 65, 4-(1H-indol-5-ylamino)-6-methyl-5-(2-thienyl)nicotinonitrile] gave an IC50 of 80 nM.
With `Cc1ncc(C#N)c(Nc2ccc3[nH]ccc3c2C)c1-c1ccc(OCCN2CC(C)NCC2C)cc1` (stereo not shown) [Example 31, 5-{4-[2-(2,5-dimethylpiperazin-1-yl)ethoxy]phenyl}-6-methyl-4-[(4-methyl-1H-indol-5-yl)amino]nicotinonitrile] the IC50 was 42 nM.
`COc1ccc(-c2c(C)ncc(C#N)c2Nc2cc(Cl)c3[nH]ccc3c2C)cc1OC` [Example 64, 4-[(7-chloro-4-methyl-1H-indol-5-yl)amino]-5-(3,4-dimethoxyphenyl)-6-methylnicotinonitrile] gave an IC50 of 84 nM.
With `Cc1ncc(C#N)c(Nc2ccc3[nH]ccc3c2C)c1-c1ccc(OCCNCCO)cc1` [Example 17, 5-(4-{2-[(2-hydroxyethyl)amino]ethoxy}phenyl)-6-methyl-4-[(4-methyl-1H-indol-5-yl)amino]nicotinonitrile] the IC50 was 19 nM.
Work on `Cc1ncc(C#N)c(Nc2ccc3[nH]ccc3c2C)c1-c1ccc(OCCNCc2ccncc2)cc1` [Example 42, 6-methyl-4-[(4-methyl-1H-indol-5-yl)amino]-5-(4-{2-[(pyridin-4-ylmethyl)amino]ethoxy}phenyl)nicotinonitrile] yielded an IC50 of 41 nM.
In the case of `Cc1ncc(C#N)c(Nc2ccc3[nH]ccc3c2C)c1-c1ccc(OCCN2CCC(CCO)CC2)cc1` [Example 25, 5-(4-{2-[4-(2-hydroxyethyl)piperidin-1-yl]ethoxy}phenyl)-6-methyl-4-[(4-methyl-1H-indol-5-yl)amino]nicotinonitrile], the IC50 is reported as 68 nM.
Molecule `Cc1ncc(C#N)c(Nc2ccc3[nH]ccc3c2C)c1-c1ccc(CN2CCN(C)CC2)s1` [Example 70, 6-methyl-4-[(4-methyl-1H-indol-5-yl)amino]-5-{5-[(4-methylpiperazin-1-yl)methyl]thiophen-2-yl}pyridine-3-carbonitrile] has an IC50 of 14 nM.
`COc1ccc(-c2c(C)ncc(C#N)c2Nc2ccc3[nH]ccc3c2)cc1OC` [Example 51, 5-(3,4-dimethoxyphenyl)-4-(1H-indol-5-ylamino)-6-methylnicotinonitrile] was tested, and the IC50 was 31 nM.
With `Cc1ncc(C#N)c(Nc2ccc3[nH]ccc3c2C)c1-c1ccc(C=O)o1` [Example 67, 5-(5-formylfuran-2-yl)-6-methyl-4-[(4-methyl-1H-indol-5-yl)amino]pyridine-3-carbonitrile] the IC50 was 21 nM.
`CCc1ncc(C#N)c(Nc2ccc3[nH]ccc3c2C)c1-c1ccc(OC)c(OC)c1` [Example 61, 5-(3,4-dimethoxyphenyl)-6-ethyl-4-[(4-methyl-1H-indol-5-yl)amino]nicotinonitrile] was tested, and the IC50 was 191 nM.
For `Cc1ncc(C#N)c(Nc2ccc3[nH]ccc3c2C)c1-c1ccc(OCCN2CCC(N3CCCCC3)CC2)cc1` [Example 27, 5-{4-[2-(1,4′-bipiperidin-1′-yl)ethoxy]phenyl}-6-methyl-4-[(4-methyl-1H-indol-5-yl)amino]nicotinonitrile], the IC50 was 30 nM.
`Cc1ncc(C#N)c(Nc2ccc3[nH]ccc3c2C)c1-c1ccc(OCCNCCN2CCCC2)cc1` [Example 21, 6-methyl-4-[(4-methyl-1H-indol-5-yl)amino]-5-(4-{2-[(2-pyrrolidin-1-ylethyl)amino]ethoxy}phenyl)nicotinonitrile] showed an IC50 of 26 nM.
Work on `Cc1ncc(C#N)c(Nc2ccc3[nH]ccc3c2)c1-c1cc2ccccc2o1` [Example 55, 5-(1-benzofuran-2-yl)-4-(1H-indol-5-ylamino)-6-methylnicotinonitrile] yielded an IC50 of 26 nM.
`COc1ccccc1-c1c(C)ncc(C#N)c1Nc1ccc2[nH]ccc2c1` [Example 52, 4-(1H-indol-5-ylamino)-5-(2-methoxyphenyl)-6-methylnicotinonitrile] gave an IC50 of 250 nM.
`Cc1ncc(C#N)c(Nc2ccc3[nH]ccc3c2C)c1-c1ccc(OCCNCc2cccnc2)cc1` [Example 41, 6-methyl-4-[(4-methyl-1H-indol-5-yl)amino]-5-(4-{2-[(pyridin-3-ylmethyl)amino]ethoxy}phenyl)nicotinonitrile] was tested, and the IC50 was 64 nM.
`COc1ccc(-c2c(C)ncc(C#N)c2Nc2ccc3[nH]c(C)cc3c2)cc1OC` [Example 48, 5-(3,4-dimethoxyphenyl)-6-methyl-4-[(2-methyl-1H-indol-5-yl)amino]nicotinonitrile] gave an IC50 of 556 nM.
`Cc1ncc(C#N)c(Nc2ccc3[nH]ccc3c2)c1-c1cc2ccccc2s1` [Example 56, 5-(1-benzothiophen-2-yl)-4-(1H-indol-5-ylamino)-6-methylnicotinonitrile] gave an IC50 of 137 nM.
`Cc1ncc(C#N)c(Nc2ccc3[nH]ccc3c2C)c1-c1ccc(OCCN2CC(C)NC(C)C2)cc1` (stereo not shown) [Example 32, 5-{4-[2-(3,5-dimethylpiperazin-1-yl)ethoxy]phenyl}-6-methyl-4-[(4-methyl-1H-indol-5-yl)amino]nicotinonitrile] was tested, and the IC50 was 25 nM.
`Cc1ncc(C#N)c(Nc2ccc3[nH]ccc3c2C)c1-c1ccc(OCCN2CCCNCC2)cc1` [Example 34, 5-{4-[2-(1,4-diazepan-1-yl)ethoxy]phenyl}-6-methyl-4-[(4-methyl-1H-indol-5-yl)amino]nicotinonitrile] showed an IC50 of 14 nM.
`Cc1ncc(C#N)c(Nc2ccc3[nH]ccc3c2)c1-c1ccccc1` [Example 50, 4-(1H-indol-5-ylamino)-6-methyl-5-phenylnicotinonitrile] showed an IC50 of 50 nM.
Work on `Cc1ncc(C#N)c(Nc2ccc3[nH]ccc3c2C)c1-c1ccc(CN2CCN(C)CC2)o1` [Example 68, 6-methyl-4-[(4-methyl-1H-indol-5-yl)amino]-5-{5-[(4-methylpiperazin-1-yl)methyl]furan-2-yl}pyridine-3-carbonitrile] yielded an IC50 of 20 nM.
For `Cc1ncc(C#N)c(Nc2ccc3[nH]ccc3c2C)c1-c1ccc(OCCNCCCO)cc1` [Example 18, 5-(4-{2-[(3-hydroxypropyl)amino]ethoxy}phenyl)-6-methyl-4-[(4-methyl-1H-indol-5-yl)amino]nicotinonitrile], the IC50 was 40 nM.
Work on `COc1ccc(-c2c(C)ncc(C#N)c2Nc2ccc3[nH]ccc3c2)cc1` [Example 54, 4-(1H-indol-5-ylamino)-5-(4-methoxyphenyl)-6-methylnicotinonitrile] yielded an IC50 of 41 nM.
Molecule `Cc1ncc(C#N)c(Nc2ccc3[nH]ccc3c2C)c1-c1cccc(CN(C)C)c1` [Example 66, 5-{3-[(dimethylamino)methyl]phenyl}-6-methyl-4-[(4-methyl-1H-indol-5-yl)amino]pyridine-3-carbonitrile] has an IC50 of 42 nM.
